± gives the standard deviation of the averaged measurements.
How the values were obtained:
NUTLIN3 = compound: COc1ccc(C2=N[C@@H](c3ccc(Cl)cc3)[C@@H](c3ccc(Cl)cc3)N2C(=O)N2CCNC(=O)C2)c(OC(C)C)c1 [NUTLIN3]; experiment: surviving fraction relative to DMSO-only wells; higher = less growth inhibition; details: exposure time: 5 days
Method in brief: (§1)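 Log-phase tumour cells were seeded at 250–500 per well in 384-well plates and, from 24 hours after seeding, exposed continuously for five days to inhibitors at 0.5, 1, 5, 10, 50, 100, 500 and 1000 nM. Surviving fraction is CellTiter-Glo luminescence normalised to the median of DMSO-only wells. Luminescence was measured after 10 minutes at room temperature, and only lines screened three times with replicate Pearson r >0.7 and median Z' >0.3 were kept.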

RESVERATROL = compound: Oc1ccc(/C=C/c2cc(O)cc(O)c2)cc1 [RESVERATROL]; experiment: as above; details: exposure time: 5 days
Method in brief: as §1

Test System	surviving fraction (NUTLIN3; 0.5 nM)	surviving fraction (NUTLIN3; 1 nM)	surviving fraction (NUTLIN3; 5 nM)	surviving fraction (NUTLIN3; 10 nM)	surviving fraction (NUTLIN3; 50 nM)	surviving fraction (NUTLIN3; 100 nM)	surviving fraction (NUTLIN3; 500 nM)	surviving fraction (NUTLIN3; 1000 nM)	surviving fraction (RESVERATROL; 0.5 nM)	surviving fraction (RESVERATROL; 1 nM)	surviving fraction (RESVERATROL; 5 nM)	surviving fraction (RESVERATROL; 10 nM)	surviving fraction (RESVERATROL; 50 nM)	surviving fraction (RESVERATROL; 100 nM)	surviving fraction (RESVERATROL; 500 nM)	surviving fraction (RESVERATROL; 1000 nM)
JURKAT HAEMATOPOIETIC AND LYMPHOID TISSUE	1.11 ± 0.031	1.1 ± 0.015	1.07 ± 0.015	1.06 ± 0.017	1.05 ± 0.078	1.03 ± 0.012	1.02 ± 0.022	1.03 ± 0.013	1.022 ± 0.0052	1.04 ± 0.022	1.02 ± 0.011	1.04 ± 0.033	0.985 ± 0.018	0.953 ± 0.011	1.02 ± 0.029	1.04 ± 0.039
KPD BONE	0.968 ± 0.042	0.966 ± 0.049	1.05 ± 0.064	0.987 ± 0.023	1.03 ± 0.061	1.01 ± 0.098	1.01 ± 0.017	0.962 ± 0.075	0.997 ± 0.054	1.03 ± 0.032	1.08 ± 0.04	1.09 ± 0.063	1.02 ± 0.017	1.08 ± 0.041	0.969 ± 0.044	1.05 ± 0.028
LM7 BONE	0.99 ± 0.075	0.977 ± 0.082	1.05 ± 0.025	1.07 ± 0.14	0.987 ± 0.065	1.08 ± 0.046	1.03 ± 0.1	0.994 ± 0.05	1.05 ± 0.036	1.05 ± 0.025	1.1 ± 0.045	1.18 ± 0.061	1.07 ± 0.067	1.15 ± 0.054	1.04 ± 0.034	1.12 ± 0.048
LNCAP PROSTATE	1.03 ± 0.034	1.01 ± 0.078	0.955 ± 0.065	1 ± 0.086	0.956 ± 0.073	0.803 ± 0.089	0.491 ± 0.12	0.289 ± 0.011	0.912 ± 0.051	0.987 ± 0.098	0.897 ± 0.11	0.775 ± 0.12	1.04 ± 0.16	0.919 ± 0.11	0.914 ± 0.08	0.956 ± 0.18
MCF7 BREAST	0.881 ± 0.036	0.841 ± 0.038	0.819 ± 0.013	0.821 ± 0.038	0.939 ± 0.021	0.952 ± 0.051	0.865 ± 0.013	0.85 ± 0.039	0.91 ± 0.027	1.01 ± 0.074	0.927 ± 0.068	0.947 ± 0.03	0.951 ± 0.063	0.99 ± 0.016	1 ± 0.077	1.04 ± 0.031
MDAMB134 BREAST	1.03 ± 0.011	0.923 ± 0.0071	1.013 ± 0.0085	0.84 ± 0.11	1.125 ± 0.0021	1.07 ± 0.032	1.021 ± 0.0042	0.896 ± 0.028	0.894 ± 0.15	1.02 ± 0.045	0.864 ± 0.11	0.811 ± 0.016	1.06 ± 0.14	1.04 ± 0.15	1.057 ± 0.0028	1.08 ± 0.048
MDAMB157 BREAST	0.957 ± 0.071	0.961 ± 0.093	0.97 ± 0.11	0.913 ± 0.12	1.02 ± 0.075	1 ± 0.039	0.999 ± 0.051	1.04 ± 0.074	1.01 ± 0.061	1.06 ± 0.048	0.972 ± 0.057	1.1 ± 0.038	0.992 ± 0.025	1.07 ± 0.03	0.972 ± 0.095	1 ± 0.1
MDAMB231 BREAST	0.97 ± 0.013	0.976 ± 0.028	1.01 ± 0.017	0.977 ± 0.019	1.06 ± 0.017	1.06 ± 0.02	1 ± 0.026	0.995 ± 0.022	0.97 ± 0.01	0.996 ± 0.013	0.9638 ± 0.0043	0.993 ± 0.016	0.9694 ± 0.0024	0.998 ± 0.012	0.993 ± 0.012	1.03 ± 0.053
MDAMB361 BREAST	0.854 ± 0.032	0.793 ± 0.036	0.809 ± 0.075	0.844 ± 0.097	0.887 ± 0.12	0.923 ± 0.063	0.907 ± 0.067	0.825 ± 0.025	0.839 ± 0.071	0.871 ± 0.11	0.894 ± 0.089	0.898 ± 0.079	0.948 ± 0.012	0.884 ± 0.021	0.949 ± 0.082	0.952 ± 0.17
MDAMB436 BREAST	0.91 ± 0.076	0.835 ± 0.092	0.923 ± 0.033	0.928 ± 0.063	0.924 ± 0.074	0.895 ± 0.12	0.881 ± 0.041	0.941 ± 0.074	0.943 ± 0.049	1.01 ± 0.17	0.998 ± 0.2	1.01 ± 0.11	1.08 ± 0.21	0.993 ± 0.11	1.06 ± 0.15	1.07 ± 0.056
MDAMB453 BREAST	1.02 ± 0.053	1.05 ± 0.029	1.07 ± 0.053	1.08 ± 0.024	1.13 ± 0.083	1.13 ± 0.13	1.04 ± 0.066	1.05 ± 0.035	1.07 ± 0.059	1.06 ± 0.06	1.16 ± 0.022	1.11 ± 0.039	1.16 ± 0.05	1.12 ± 0.069	1.04 ± 0.058	1.09 ± 0.019
MDAMB468 BREAST	0.994 ± 0.026	0.978 ± 0.019	1.07 ± 0.071	1.02 ± 0.067	1.06 ± 0.07	1.04 ± 0.076	1.04 ± 0.049	0.982 ± 0.041	1.05 ± 0.11	1.13 ± 0.08	1.06 ± 0.059	1.07 ± 0.05	1.02 ± 0.047	1.14 ± 0.037	1.07 ± 0.053	1.09 ± 0.06
MFM223 BREAST	1.07 ± 0.079	1.04 ± 0.13	1.08 ± 0.058	1.06 ± 0.027	1.12 ± 0.045	1.12 ± 0.073	1.12 ± 0.063	1.07 ± 0.068	1.06 ± 0.062	1.45 ± 0.56	1.15 ± 0.042	1.46 ± 0.46	1.08 ± 0.086	1.08 ± 0.18	1.19 ± 0.046	1.08 ± 0.11
MG63 BONE	1.01 ± 0.039	1 ± 0.014	1.07 ± 0.046	1.05 ± 0.019	1.06 ± 0.029	1.05 ± 0.018	0.989 ± 0.042	1.01 ± 0.043	1.01 ± 0.038	1.06 ± 0.048	1.07 ± 0.035	1.15 ± 0.021	1.04 ± 0.024	1.11 ± 0.029	1.03 ± 0.023	1.05 ± 0.031
MHM BONE	0.995 ± 0.017	0.998 ± 0.019	1.03 ± 0.028	1.02 ± 0.024	1.01 ± 0.023	1.02 ± 0.046	0.963 ± 0.018	0.9187 ± 0.0085	0.997 ± 0.013	1.02 ± 0.015	1.03 ± 0.012	1.03 ± 0.018	1.06 ± 0.032	1.06 ± 0.049	0.998 ± 0.025	1.045 ± 0.0076
NCIH441 LUNG	1.04 ± 0.092	1.04 ± 0.028	1.01 ± 0.058	1.05 ± 0.051	1.07 ± 0.095	1.08 ± 0.1	1.2 ± 0.06	1.14 ± 0.065	1.14 ± 0.074	1.08 ± 0.12	1.1 ± 0.099	1.18 ± 0.09	1.09 ± 0.029	1.15 ± 0.087	1.1 ± 0.025	1.17 ± 0.026
NOS1 BONE	1.14 ± 0.072	0.978 ± 0.1	1.142 ± 0.0078	1.17 ± 0.16	1.14 ± 0.071	1.15 ± 0.1	1.08 ± 0.042	1.08 ± 0.04	1.08 ± 0.18	0.975 ± 0.046	1.07 ± 0.028	1.137 ± 0.0086	1.21 ± 0.22	1.35 ± 0.13	1.16 ± 0.032	1.17 ± 0.053
NY BONE	1 ± 0.019	0.95 ± 0.034	0.997 ± 0.033	1.015 ± 0.0098	1.05 ± 0.048	1.01 ± 0.034	0.925 ± 0.036	0.972 ± 0.012	0.936 ± 0.024	0.976 ± 0.03	1.06 ± 0.022	1.06 ± 0.048	1.01 ± 0.035	1.05 ± 0.047	0.951 ± 0.0076	1.01 ± 0.054
OS25HAL BONE	0.975 ± 0.014	0.998 ± 0.018	0.979 ± 0.013	0.974 ± 0.03	1.06 ± 0.0081	1.064 ± 0.0045	1.052 ± 0.0056	1.06 ± 0.013	1.01 ± 0.026	1.11 ± 0.059	1.03 ± 0.032	0.996 ± 0.024	1.001 ± 0.0068	1.08 ± 0.04	1.03 ± 0.018	1.16 ± 0.027
OSHN BONE	1.06 ± 0.036	1.05 ± 0.057	1.06 ± 0.034	1.05 ± 0.044	1.09 ± 0.058	1.07 ± 0.033	1.08 ± 0.034	1.07 ± 0.029	1.02 ± 0.022	1.106 ± 0.0076	1.07 ± 0.017	1.099 ± 0.004	1.06 ± 0.026	1.13 ± 0.03	1.09 ± 0.02	1.11 ± 0.024

Source: the supplement of paper PMC6045584
